In patent US12480137B2, “Plants having increased tolerance to herbicides” (BASF SE, priority 2014, dated 2025):

Assays:
Assay type in all cases: in vivo, Arabidopsis thaliana
A. thaliana WT L. erecta [1] = test: Greenhouse phytotox, pre-emergent treatment
Method: (§1) Additionally, M2 or M3 Arabidopsis plants are tested for improved tolerance to cellulose biosynthesis-inhibiting herbicides in greenhouse studies (e. g. with the following cellulose biosynthesis-inhibiting herbicides: 6-cyclopentyl-N4-(2,3,4,5,6-pentafluorophenyl)-1,3,5-triazine-2,4-diamine; 6-(1-fluoro-1-methyl-ethyl)-N4-(2,3,4,5,6-pentafluorophenyl)-1,3,5-triazine-2,4-diamine; N4-(4-chloro-3,5,6-trifluoro-2-pyridyl)-6-(1-fluoro-1-methyl-ethyl)-1,3,5-triazine-2,4-diamine; 6-(2,6-difluorophenyl)-N4-(2,3,5,6-tetrafluorophenyl)-1,3,5-triazine-2,4-diamine; N4-(4-bromo-2,3,5,6-tetrafluoro-phenyl)-6-(1-fluoro-1-methyl-ethyl)-1,3,5-triazine-2,4-diamine.

[2] = system: Cesa1_G1009D, fpx2-3 mutant line; test: Greenhouse phytotox, pre-emergent treatment
Method: as §1

[3] = system: Cesa1_G1013R, fpx2-1 mutant line; test: Greenhouse phytotox, pre-emergent treatment
Method: as §1

[4] = system: Cesa1_P1010L, fpx2-2 mutant line; test: Greenhouse phytotox, pre-emergent treatment
Method: as §1

[5] = system: Cesa3_S1037F, fpx1-2 mutant line; test: Greenhouse phytotox, pre-emergent treatment
Method: as §1

[6] = system: Cesa3_S1040L, fpx1-1 mutant line; test: Greenhouse phytotox, pre-emergent treatment
Method: as §1

[7] = system: Cesa3_S983F, fpx1-3 mutant line; test: Greenhouse phytotox, pre-emergent treatment
Method: as §1

A. thaliana WT L. erecta [8] = test: Greenhouse phytotox, post-emergent treatment 6 weeks after sowing
Method: as §1

[9] = system: Cesa1_G1009D, fpx2-3 mutant line; test: as above
Method: as §1

[10] = system: Cesa1_G1013R, fpx2-1 mutant line; test: as above
Method: as §1

[11] = system: Cesa1_P1010L, fpx2-2 mutant line; test: as above
Method: as §1

[12] = system: Cesa3_S1037F, fpx1-2 mutant line; test: as above
Method: as §1

[13] = system: Cesa3_S1040L, fpx1-1 mutant line; test: as above
Method: as §1

[14] = system: Cesa3_S983F, fpx1-3 mutant line; test: as above
Method: as §1

[15] = system: transgenic Arabidopsis plants, construct AtCESA1 wt; test: Growth inhibition of transgenic Arabidopsis in 48-well plates, tolerance factor from IC50; details: SEQ ID NO 1, growth inhibition seven to ten days after seeding
Excerpt: (§2) For transformation of Arabidopsis thaliana, wildtype or mutated cellulose synthase sequences based on one of the following sequences SEQ ID NO: 72, 73, 74, 75, 76, or 77, are cloned with standard cloning techniques as described in Sambrook et al. (Molecular cloning (2001) Cold Spring Harbor Laboratory Press) in a binary vector containing resistance marker gene cassette (AHAS) and mutated cellulose synthase sequence (marked as GOI) in between ubiquitin promoter (PcUbi) and nopaline synthase terminator (NOS) sequence. Binary plasmids are introduced to Agrobacterium tumefaciens for plant transformation. Arabidopsis thaliana are transformed with wildtype or mutated cellulose synthase sequences by floral dip method as decribed by McElver and Singh (WO 2008/124495). Transgenic Arabidopsis plants are subjected to TaqMan analysis for analysis of the number of integration loci.
(§3) Transgenic Arabidopsis thaliana plants are assayed for improved tolerance to azine herbicides like e. g. 6-cyclopentyl-N4-(2,3,4,5,6-pentafluorophenyl)-1,3,5-triazine-2,4-diamine in 48-well plates. Therefore, T2 seeds are surface sterilized by stirring for 5 min in ethanol+water (70+30 by volume), rinsing one time with ethanol+water (70+30 by volume) and two times with sterile, deionized water. The seeds are resuspended in 0.1% agar dissolved in water (w/v) Four to five seeds per well are plated on solid nutrient medium consisting of half-strength murashige skoog nutrient solution, pH 5.8 (Murashige and Skoog (1962) Physiologia Plantarum 15: 473-497). Compounds are dissolved in dimethylsulfoxid (DMSO) and added to the medium prior solidification (final DMSO concentration 0.1%). Multi well plates are incubated in a growth chamber at 22° C., 75% relative humidity and 110 μmol Phot*m^−2*s^−1 with 14:10 h light:dark photoperiod. Growth inhibition is evaluated seven to ten days after seeding in comparison to wild type plants. Tolerance factors are calculated based on IC50 values of growth inhibition of transformed versus non-transformed Arabidopsis plants.

[16] = system: transgenic Arabidopsis plants, construct AtCESA1_G1013R; test: as above; details: SEQ ID NO 1, substitution G1013R, growth inhibition seven to ten days after seeding
Excerpt: as §2, §3

[17] = system: transgenic Arabidopsis plants, construct AtCESA3_S1037F; test: as above; details: SEQ ID NO 3, substitution S1037F, growth inhibition seven to ten days after seeding
Excerpt: as §2, §3

[18] = system: transgenic Arabidopsis plants, construct AtCESA3_S1040L; test: as above; details: SEQ ID NO 3, substitution S1040L, growth inhibition seven to ten days after seeding
Excerpt: as §2, §3

[19] = system: transgenic Arabidopsis plants, construct AtCESA3_wt; test: as above; details: SEQ ID NO 3, growth inhibition seven to ten days after seeding
Excerpt: as §2, §3

Compound: Cc1cccc(-n2nc(C(N)=O)nc2-c2ccccc2)c1 [1-(m-tolyl)-5-phenyl-1,2,4-triazole-3-carboxamide, reference compound]
- Phytotox value on a scale from 0-100 (100 is 100% damage) (A. thaliana WT L. erecta [1]; 3.91 g ai/ha): 0
- Phytotox value on a scale from 0-100 (100 is 100% damage) (A. thaliana WT L. erecta [1]; 15.63 g ai/ha): 63
- Phytotox value on a scale from 0-100 (100 is 100% damage) (A. thaliana WT L. erecta [1]; 62.5 g ai/ha): 100
- Phytotox value on a scale from 0-100 (100 is 100% damage) (A. thaliana WT L. erecta [1]; 250 g ai/ha): 100
- Phytotox value on a scale from 0-100 (100 is 100% damage) ([2]; 3.91 g ai/ha): 0
- Phytotox value on a scale from 0-100 (100 is 100% damage) ([2]; 15.63 g ai/ha): 18
- Phytotox value on a scale from 0-100 (100 is 100% damage) ([2]; 62.5 g ai/ha): 30
- Phytotox value on a scale from 0-100 (100 is 100% damage) ([2]; 250 g ai/ha): 45
- Phytotox value on a scale from 0-100 (100 is 100% damage) ([3]; 3.91 g ai/ha): 5
- Phytotox value on a scale from 0-100 (100 is 100% damage) ([3]; 15.63 g ai/ha): 15
- Phytotox value on a scale from 0-100 (100 is 100% damage) ([3]; 62.5 g ai/ha): 20
- Phytotox value on a scale from 0-100 (100 is 100% damage) ([3]; 250 g ai/ha): 15
- Phytotox value on a scale from 0-100 (100 is 100% damage) ([4]; 3.91 g ai/ha): 0
- Phytotox value on a scale from 0-100 (100 is 100% damage) ([4]; 15.63 g ai/ha): 20
- Phytotox value on a scale from 0-100 (100 is 100% damage) ([4]; 62.5 g ai/ha): 13
- Phytotox value on a scale from 0-100 (100 is 100% damage) ([4]; 250 g ai/ha): 35
- Phytotox value on a scale from 0-100 (100 is 100% damage) ([5]; 3.91 g ai/ha): 0
- Phytotox value on a scale from 0-100 (100 is 100% damage) ([5]; 15.63 g ai/ha): 30
- Phytotox value on a scale from 0-100 (100 is 100% damage) ([5]; 62.5 g ai/ha): 23
- Phytotox value on a scale from 0-100 (100 is 100% damage) ([5]; 250 g ai/ha): 68
- Phytotox value on a scale from 0-100 (100 is 100% damage) ([6]; 3.91 g ai/ha): 38
- Phytotox value on a scale from 0-100 (100 is 100% damage) ([6]; 15.63 g ai/ha): 30
- Phytotox value on a scale from 0-100 (100 is 100% damage) ([6]; 62.5 g ai/ha): 0
- Phytotox value on a scale from 0-100 (100 is 100% damage) ([6]; 250 g ai/ha): 25
- Phytotox value on a scale from 0-100 (100 is 100% damage) ([7]; 3.91 g ai/ha): 0
- Phytotox value on a scale from 0-100 (100 is 100% damage) ([7]; 15.63 g ai/ha): 8
- Phytotox value on a scale from 0-100 (100 is 100% damage) ([7]; 62.5 g ai/ha): 5
- Phytotox value on a scale from 0-100 (100 is 100% damage) ([7]; 250 g ai/ha): 30
- Phytotox value on a scale from 0-100 (100 is 100% damage) (A. thaliana WT L. erecta [8]; 62.5 g ai/ha): 78
- Phytotox value on a scale from 0-100 (100 is 100% damage) (A. thaliana WT L. erecta [8]; 125 g ai/ha): 83
- Phytotox value on a scale from 0-100 (100 is 100% damage) (A. thaliana WT L. erecta [8]; 250 g ai/ha): 95
- Phytotox value on a scale from 0-100 (100 is 100% damage) ([9]; 62.5 g ai/ha): 23
- Phytotox value on a scale from 0-100 (100 is 100% damage) ([9]; 125 g ai/ha): 33
- Phytotox value on a scale from 0-100 (100 is 100% damage) ([9]; 250 g ai/ha): 45
- Phytotox value on a scale from 0-100 (100 is 100% damage) ([10]; 62.5 g ai/ha): 23
- Phytotox value on a scale from 0-100 (100 is 100% damage) ([10]; 125 g ai/ha): 33
- Phytotox value on a scale from 0-100 (100 is 100% damage) ([10]; 250 g ai/ha): 40
- Phytotox value on a scale from 0-100 (100 is 100% damage) ([11]; 62.5 g ai/ha): 15
- Phytotox value on a scale from 0-100 (100 is 100% damage) ([11]; 125 g ai/ha): 15
- Phytotox value on a scale from 0-100 (100 is 100% damage) ([11]; 250 g ai/ha): 48
- Phytotox value on a scale from 0-100 (100 is 100% damage) ([12]; 62.5 g ai/ha): 30
- Phytotox value on a scale from 0-100 (100 is 100% damage) ([12]; 125 g ai/ha): 50
- Phytotox value on a scale from 0-100 (100 is 100% damage) ([12]; 250 g ai/ha): 68
- Phytotox value on a scale from 0-100 (100 is 100% damage) ([13]; 62.5 g ai/ha): 0
- Phytotox value on a scale from 0-100 (100 is 100% damage) ([13]; 125 g ai/ha): 23
- Phytotox value on a scale from 0-100 (100 is 100% damage) ([13]; 250 g ai/ha): 55
- Phytotox value on a scale from 0-100 (100 is 100% damage) ([14]; 62.5 g ai/ha): 28
- Phytotox value on a scale from 0-100 (100 is 100% damage) ([14]; 125 g ai/ha): 23
- Phytotox value on a scale from 0-100 (100 is 100% damage) ([14]; 250 g ai/ha): 53
- Relative tolerance rate (non-transgenic = 1.0) [15]: 3
- Relative tolerance rate (non-transgenic = 1.0) [16]: 33
- Relative tolerance rate (non-transgenic = 1.0) [17]: 1333
- Relative tolerance rate (non-transgenic = 1.0) [18]: 2
- Relative tolerance rate (non-transgenic = 1.0) [19]: 4
